PubChem BioAssay AID1259407 (Chemical Carcinogenesis Research Information System (CCRIS), 2018)
The source made the active and inactive calls. The rule behind the calls is not given here.

Test system: CCRIS mutagenicity, Ames/micronucleus/aberration tests
Assay: CCRIS mutagenicity studies
[1] = Test System: AMES SALMONELLA TYPHIMURIUM, Strain/Indicator: TA100, Metabolic Activation: NONE, Method: STANDARD PLATE
[2] = Test System: AMES SALMONELLA TYPHIMURIUM, Strain/Indicator: TA98, Metabolic Activation: NONE, Method: PREINCUBATION
[3] = Test System: AMES SALMONELLA TYPHIMURIUM, Strain/Indicator: TA98, Metabolic Activation: RAT, LIVER, S-9, AROCLOR 1254 (10%), Method: PREINCUBATION
[4] = Test System: AMES SALMONELLA TYPHIMURIUM, Strain/Indicator: TA100, Metabolic Activation: HAMSTER, LIVER, S-9, AROCLOR 1254 (10%), Method: PREINCUBATION
[5] = Test System: AMES SALMONELLA TYPHIMURIUM, Strain/Indicator: TA100, Metabolic Activation: NONE, Method: PREINCUBATION
[6] = Test System: AMES SALMONELLA TYPHIMURIUM, Strain/Indicator: TA100, Metabolic Activation: RAT, LIVER, S-9, AROCLOR 1254 (10%), Method: PREINCUBATION
[7] = Test System: AMES SALMONELLA TYPHIMURIUM, Strain/Indicator: TA1535, Metabolic Activation: HAMSTER, LIVER, S-9, AROCLOR 1254 (10%), Method: PREINCUBATION
[8] = Test System: AMES SALMONELLA TYPHIMURIUM, Strain/Indicator: TA1535, Metabolic Activation: NONE, Method: PREINCUBATION
[9] = Test System: AMES SALMONELLA TYPHIMURIUM, Strain/Indicator: TA1535, Metabolic Activation: RAT, LIVER, S-9, AROCLOR 1254 (10%), Method: PREINCUBATION
[10] = Test System: AMES SALMONELLA TYPHIMURIUM, Strain/Indicator: TA1537, Metabolic Activation: HAMSTER, LIVER, S-9, AROCLOR 1254 (10%), Method: PREINCUBATION
[11] = Test System: AMES SALMONELLA TYPHIMURIUM, Strain/Indicator: TA1537, Metabolic Activation: NONE, Method: PREINCUBATION
[12] = Test System: AMES SALMONELLA TYPHIMURIUM, Strain/Indicator: TA1537, Metabolic Activation: RAT, LIVER, S-9, AROCLOR 1254 (10%), Method: PREINCUBATION
[13] = Test System: AMES SALMONELLA TYPHIMURIUM, Strain/Indicator: TA98, Metabolic Activation: NONE, Method: STANDARD PLATE

`CN(N=O)C(CCC(=O)O)c1cccnc1` (centres undefined) was tested, and the mutagenic call (Test System: UDS RODENT HEPATOCYTES, Metabolic Activation: NONE) was “inactive; negative”.
For `COc1ccc(C(=O)ON(OCc2ccccc2)C(=O)c2ccccc2)cc1`, the mutagenic call [1] was “active; positive” and the mutagenic call (Test System: AMES SALMONELLA TYPHIMURIUM, Strain/Indicator: TA100, Metabolic Activation: RAT, S-9, AROCLOR, Method: STANDARD PLATE) was “active; positive”.
`Nc1cccc(Cl)c1` was tested, and the mutagenic call (End Point: IN VITRO CHROMOSOMAL ABERRATIONS, Test System: CHL/IU CELLS, Metabolic Activation: NONE) was “active; positive (structural changes)”, the mutagenic call (End Point: IN VITRO MICRONUCLEUS, Test System: CHL/IU CELLS, Metabolic Activation: NONE) was “active; positive” and the mutagenic call [2] was “inactive; negative”. For the same molecule, the mutagenic call [3] was “inactive; negative”, the mutagenic call [4] was “inactive; negative” and the mutagenic call [5] was “inactive; negative”. The mutagenic call [6] was “inactive; negative”, the mutagenic call [7] was “inactive; negative” and the mutagenic call [8] was “inactive; negative”. The mutagenic call [9] was “inactive; negative”, the mutagenic call [10] was “inactive; negative” and the mutagenic call [11] was “inactive; negative”. For the same molecule, the mutagenic call [12] was “inactive; negative”, the mutagenic call (Test System: CHINESE HAMSTER V-79, Strain/Indicator: V-79/8-AZAGUANINE, Metabolic Activation: NONE, Method: SUSPENSION/PLATE) was “active; positive” and the mutagenic call (Test System: CHINESE HAMSTER V-79, Strain/Indicator: V-79/OUABAIN, Metabolic Activation: NONE, Method: SUSPENSION/PLATE) was “inactive; negative”.
In the case of `O=C1OC(=O)c2c(Cl)c(Cl)c(Cl)c(Cl)c21`, the mutagenic call (End Point: IN VITRO CHROMOSOMAL ABERRATIONS, Test System: CHINESE HAMSTER OVARY CELLS, Metabolic Activation: NONE) is reported as “inactive; negative”, the mutagenic call (End Point: IN VITRO CHROMOSOMAL ABERRATIONS, Test System: CHINESE HAMSTER OVARY CELLS, Metabolic Activation: RAT, LIVER, S-9, AROCLOR 1254) is reported as “inactive; negative” and the mutagenic call (Test System: AMES SALMONELLA TYPHIMURIUM, Strain/Indicator: TA98, Metabolic Activation: HAMSTER, LIVER, S-9, AROCLOR 1254 (10%), Method: PREINCUBATION) is reported as “inactive; negative”. The mutagenic call [2] was “inactive; negative”, the mutagenic call [3] was “inactive; negative” and the mutagenic call [4] was “inactive; negative”. The mutagenic call [5] was “inactive; negative”, the mutagenic call [6] was “inactive; negative” and the mutagenic call [7] was “inactive; negative”. For the same molecule, the mutagenic call [8] was “inactive; negative”, the mutagenic call [9] was “inactive; negative” and the mutagenic call [10] was “inactive; negative”. The mutagenic call [11] was “inactive; negative” and the mutagenic call [12] was “inactive; negative”.
For `NC(=O)CC1CO1` (centres undefined), the mutagenic call [5] was “active; positive”, the mutagenic call [1] was “active; positive” and the mutagenic call (Test System: AMES SALMONELLA TYPHIMURIUM, Strain/Indicator: TA100, Metabolic Activation: RAT, LIVER, S-9, AROCLOR 1254, Method: PREINCUBATION) was “active; positive”. The mutagenic call (Test System: AMES SALMONELLA TYPHIMURIUM, Strain/Indicator: TA100, Metabolic Activation: RAT, LIVER, S-9, AROCLOR 1254, Method: STANDARD PLATE) was “active; positive”.
In the case of `O=C1CN(/N=C/C=C/c2ccc([N+](=O)[O-])o2)C(=O)N1`, the mutagenic call (Test System: AMES SALMONELLA TYPHIMURIUM, Strain/Indicator: TA97, Metabolic Activation: NONE, Method: STANDARD PLATE) is reported as “active; positive”, the mutagenic call [13] is reported as “active; positive” and the mutagenic call [1] is reported as “active; positive”. For the same molecule, the mutagenic call (Test System: E. COLI WP2, Strain/Indicator: WP2, Metabolic Activation: NONE, Method: SPOT) was “active; positive”.
`O=[N+]([O-])c1ccc2nc3cc([N+](=O)[O-])ccc3nc2c1` was tested, and the mutagenic call (Test System: AMES SALMONELLA TYPHIMURIUM, Strain/Indicator: TA98(NR), Metabolic Activation: NONE, Method: PREINCUBATION) was “active; positive” and the mutagenic call [2] was “active; positive”.
For `CCn1c2ccccc2c2cc(C=O)ccc21`, the mutagenic call (End Point: IN VITRO CHROMOSOMAL ABERRATIONS, Test System: CHL CELLS, Metabolic Activation: RAT, LIVER, S-9, SODIUM PHENOBARBITAL AND 5,6-BENZOFLAVONE) was “active; positive (structural changes)”.
In the case of `C=CCNC(N)=S`, the mutagenic call (Test System: AMES SALMONELLA TYPHIMURIUM, Strain/Indicator: TA97, Metabolic Activation: HAMSTER, LIVER, S-9, AROCLOR 1254 (10 OR 30%), Method: PREINCUBATION) is reported as “inactive; negative”, the mutagenic call (Test System: AMES SALMONELLA TYPHIMURIUM, Strain/Indicator: TA97, Metabolic Activation: NONE, Method: PREINCUBATION) is reported as “inactive; negative” and the mutagenic call (Test System: AMES SALMONELLA TYPHIMURIUM, Strain/Indicator: TA97, Metabolic Activation: RAT, LIVER, S-9, AROCLOR 1254 (10 OR 30%), Method: PREINCUBATION) is reported as “inactive; negative”. For the same molecule, the mutagenic call (Test System: AMES SALMONELLA TYPHIMURIUM, Strain/Indicator: TA98, Metabolic Activation: HAMSTER, LIVER, S-9, AROCLOR 1254 (10 OR 30%), Method: PREINCUBATION) was “inactive; negative”, the mutagenic call [2] was “inactive; negative” and the mutagenic call (Test System: AMES SALMONELLA TYPHIMURIUM, Strain/Indicator: TA98, Metabolic Activation: RAT, LIVER, S-9, AROCLOR 1254 (10 OR 30%), Method: PREINCUBATION) was “inactive; negative”. For the same molecule, the mutagenic call (Test System: AMES SALMONELLA TYPHIMURIUM, Strain/Indicator: TA100, Metabolic Activation: HAMSTER, LIVER, S-9, AROCLOR 1254 (10 OR 30%), Method: PREINCUBATION) was “inactive; negative”, the mutagenic call [5] was “inactive; negative” and the mutagenic call (Test System: AMES SALMONELLA TYPHIMURIUM, Strain/Indicator: TA100, Metabolic Activation: RAT, LIVER, S-9, AROCLOR 1254 (10 OR 30%), Method: PREINCUBATION) was “inactive; negative”. For the same molecule, the mutagenic call (Test System: AMES SALMONELLA TYPHIMURIUM, Strain/Indicator: TA1535, Metabolic Activation: HAMSTER, LIVER, S-9, AROCLOR 1254 (10 OR 30%), Method: PREINCUBATION) was “inactive; negative”, the mutagenic call [8] was “inactive; negative” and the mutagenic call (Test System: AMES SALMONELLA TYPHIMURIUM, Strain/Indicator: TA1535, Metabolic Activation: RAT, LIVER, S-9, AROCLOR 1254 (10 OR 30%), Method: PREINCUBATION) was “inactive; negative”.
In the case of `[Ag]`, the mutagenic call (End Point: In vivo micronucleus, Test System: Bone marrow polychromatic erythrocytes, Species: Rat, Strain/Sex: Sprague-Dawley/Male and Female, Route: Oral) is reported as “inactive; negative”.
In the case of `Oc1cccc2c1ccc1[nH]c3ccc4ccccc4c3c12`, the mutagenic call [13] is reported as “active; positive”, the mutagenic call (Test System: AMES SALMONELLA TYPHIMURIUM, Strain/Indicator: TA98, Metabolic Activation: RAT, LIVER, S-9, 3-METHYLCHOLANTHRENE, Method: STANDARD PLATE) is reported as “active; positive” and the mutagenic call [1] is reported as “active; positive”. For the same molecule, the mutagenic call (Test System: AMES SALMONELLA TYPHIMURIUM, Strain/Indicator: TA100, Metabolic Activation: RAT, LIVER, S-9, 3-METHYLCHOLANTHRENE, Method: STANDARD PLATE) was “active; positive”, the mutagenic call (Test System: AMES SALMONELLA TYPHIMURIUM, Strain/Indicator: TM677, Metabolic Activation: NONE, Method: PREINCUBATION) was “inactive; negative” and the mutagenic call (Test System: AMES SALMONELLA TYPHIMURIUM, Strain/Indicator: TM677, Metabolic Activation: RAT, LIVER, S-9, 3-METHYLCHOLANTHRENE (10%), Method: PREINCUBATION) was “active; positive”. The mutagenic call (Test System: AMES SALMONELLA TYPHIMURIUM, Strain/Indicator: TM677, Metabolic Activation: RAT, LIVER, S-9, AROCLOR 1254 (10%), Method: PREINCUBATION) was “active; positive”.
For `CC(=O)O[C@]1(C)C(=O)OC/C2=C/CN(C)CC[C@@H](OC(=O)C3(C[C@H]1C)O[C@@H]3C)C2=O` (some centres undefined), the mutagenic call (Test System: UDS RAT HEPATOCYTES, Strain/Indicator: THY INCORP, Metabolic Activation: NONE, Method: AUTORADIOGRAPHY) was “active; positive”.
